# Test system: DGAT
# Experiment: Assay for inhibitory effect on DGAT in cell (intracellular triglyceride production from [14C]acetate in HepG2 cells)
# Assay type: cell-based, human
# Protocol: The effect of the benzazole derivatives of Chemical Formula 1 in accordance with the present invention on DGAT was examined with HepG2 cells, hepatic cells derived from the human liver, as follows.
# HepG2 cells, purchased from ATCC, were cultured in Eagle's minimum essential medium (MEM), 2 mM L-glutamine, with Earle's balanced salt solution (BSS) adjusted to contain, 1.5 g/L sodium bicarbonate, 0.1 mM non-essential amino acids and 1 mM sodium pyruvate, supplemented with 10% fetal bovine serum (FBS) and 1% antibiotics (100 U/ml penicillin and 100 µg/ml streptomycin) at 37° C. in a 5% CO2 incubator.
# Intracellular DGAT activity was represented by the amount of triglycerides produced in the cultured HepG2 cells while the compounds (4, 8, 10, 22, 24, 25, 26, 39 and 31) of Chemical Formula 1 were assayed for inhibitory activity against DGAT by measuring the change in intracellular triglyceride production after the addition thereof.
# Cells were plated at a density of 1×10^6 cell/ml per well into 24-well plates and incubated for 24 hours. Then, the medium was exchanged with FBS-free MEM and pre-treated with samples for 1 hour. Thereafter, 0.2 mCi of [^14C]acetate (Amersham) was added as a substrate to the cells, followed by incubation for 1 hour. The production of triglyceride was catalyzed by DGAT so that DGAT activity was determined by the amount of the triglyceride product, which could be measured by radioactivity. For use, the samples were dissolved in dimethyl sulfoxide (DMSO). In a control, triglycerides were synthesized using DMSO without any sample, with the production yield thereof given as 100.
# The amount of the glyceride products synthesized was determined as follows. After completion of synthesis, the cells were suspended in PBS (phosphate-buffer-saline) to remove the substrate [^14C]acetate, whether unabsorbed into the cells or remaining unreacted, and total lipids, including triglycerides, were extracted twice for 30 min with 0.5 ml of an extraction solvent mixture (hexane:isopropanol=3:2, v:v). 1 ml of the extract was concentrated with nitrogen gas.
# The total lipid residue thus formed was dissolved in an organic solvent mixture (chloroform:methanol=2:1) and loaded dropwise onto a thin layer chromatography plate (TLC; silica gel 60F254, 0.5 mm, Merck) using a mixture of 80:20:1 hexane:diethylether:acetic acid (v:v:v) as a developing solvent. After the separation of triglycerides (Rf value: 0.4) on TLC, the plate was brought into contact with an autoradiographic film for three hours, followed by image analysis (BAS-1500, Fuji Photo Film Co. Ltd.) to determine the [^14C] radioactivity of the triglycerides. The cells left after the extraction were suspended in 0.3 ml of a 0.1 N sodium hydroxide solution to measure the cellular protein concentration thereof.
# The empirical values were obtained by dividing triglyceride radioactivity by protein level, with correction for experimental errors between test groups.
compound,measurement,setting,value
"O=C(NCc1ccco1)c1ccc2oc(COc3ccc(C45CC6CC(CC(C6)C4)C5)cc3)nc2c1 [Cpd. 22, 2-(4-adamantan-1-yl-phenoxymethyl)-benzoxazole-5-carboxylic acid (furan-2-ylmethyl)-amide]",inhibition of the biosynthesis of triglycerides,10 μM,32.2%
same,Production Yield of Triglyceride (%),"final level 10 μM, DMSO control given as 100",67.8 ± 7.2%

# — patent publication US8304448B2, “Method for the treatment of metabolic disorder containing benzazole derivatives as an active ingredient” (Korea Research Institute of Bioscience and Biotechnology, priority 2006, dated 2012)
